Among the data in patent US9573913B2, “Cathepsin cysteine protease inhibitors” (Merck Sharp & Dohme Corp., priority 2013, dated 2017) are IC50 values, retold here.

The target of one assay is human cathepsin K (UniProt P43236). The experiment in a line: Cathepsin K Assay (hrbCat K). Format: biochemical. As to conditions: Z-Leu-Arg-AMC substrate, pH 5.5, 15 min preincubation; read-out: hrbCat K (IP (nM)). The method, then:
Cathepsin K Assay (hrbCat K)
(§1) Then 0.5 μL of DMSO from each dilution were added to 18.75 μL of assay buffer (MES, 50 mM (pH 5.5); EDTA, 2.5 mM; DTT, 2.5 mM and 10% DMSO) containing human cathepsin K (0.4 nM) in assay buffer solution. The assay solutions were mixed for 5-10 seconds on a shaker plate and incubated for 15 minutes at room temperature. Z-Leu-Arg-AMC (8 μM) in 6.25 μL of assay buffer was added to the assay solutions. Hydrolysis of the coumarin leaving group (AMC) was followed by spectrofluorometry (Exλ=360 nm; Emλ=460 nm) for 30 minutes. Percent of inhibition were calculated by fitting experimental values to standard mathematical model for dose response curve.

For another assay, the target named is T1, human cathepsin F (Homo sapiens, UniProt Q9UBX1).
T1 sequence (Q9UBX1 271-484): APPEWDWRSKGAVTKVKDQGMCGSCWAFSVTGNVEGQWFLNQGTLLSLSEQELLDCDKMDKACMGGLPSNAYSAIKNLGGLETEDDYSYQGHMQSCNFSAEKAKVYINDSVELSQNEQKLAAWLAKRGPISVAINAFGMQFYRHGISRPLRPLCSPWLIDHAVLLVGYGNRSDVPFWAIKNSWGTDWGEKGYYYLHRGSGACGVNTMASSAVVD
Kind of assay: Cathepsin F assay (hCat F). Format: biochemical. To be noted: Z-Phe-Arg-AMC substrate, pH 5.5, 15 min preincubation; read-out: hCat F (IP (nM)). Here is the method:
Cathepsin F assay (hCat F)
as §1, with “Serial dilutions (1/3) from 500 μM down to 0.025 μM of test compounds were prepared in dimethyl sulfoxide (DMSO). Then” for “Then”, “F (10” for “K (0.4”, “Z-Phe-Arg-AMC” for “Z-Leu-Arg-AMC”, “20” for “30”

A value given as a limit tells only on which side of the number the result lay.

Consider `C[C@@H](C#N)NC(=O)[C@@H]1C[C@@H](F)CC[C@H]1c1nc(C(C)(C)C)sc1-c1ccc(N2CCS(=O)(=O)CC2)cc1` [Example 207, (1R,2R,5S)-2-(2-(tert-butyl)-5-(4-(1,1-dioxidothiomorpho-lino)phenyl)thiazol-4-yl)-N-((S)-1-cyanoethyl)-5-fluorocyclohexane-carboxamide], for which the IC50 at human cathepsin K was determined as 1.6 nM; at human cathepsin F it was 2570 nM.

On to `CN=S1(=O)CCN(c2ccc(-c3sc(-c4ccc(F)cc4)nc3[C@@H]3CCCC[C@H]3C(=O)NC3(C#N)CC3)cc2)CC1` [Example 160, (1R,2R)-N-(1-cyanocyclopropyl)-2-(2-(4-fluorophenyl)-5-(4-(1-(methylimino)-1-oxidothiomorpholino)phenyl)thiazol-4-yl)cyclohexane-carboxamide], for which the IC50 on human cathepsin K stood at 1.6 nM; on human cathepsin F, 3330 nM.

In the case of `CC(C)(C)c1nc([C@@H]2CCCC[C@H]2C(=O)NC2(C#N)CC2)c(-c2ccc(N3CCS(=O)(=O)CC3)cc2)o1` [Example 167, (1R,2R)-2-(2-(tert-butyl)-5-(4-(1,1-dioxidothiomorpho-lino)phenyl)oxazol-4-yl)-N-(1-cyanocyclopropyl) cyclohexanecarbox-amide], the IC50 at human cathepsin K stood at 2.4 nM; at human cathepsin F it was 5120 nM.

As for `COc1ccc(-c2nc([C@@H]3CCCC[C@H]3C(=O)NC3(C#N)CC3)c(-c3ccc(N4CCS(=O)(=O)CC4)cc3)s2)cn1` [Example 86, (1R,2R)-N-(1-cyanocyclopropyl)-2-(5-(4-(1,1-dioxidothiomorpho-lino)phenyl)-2-(6-methoxypyridin-3-yl)thiazol-4-yl)cyclohexane-carboxamide], the figures for the IC50 on human cathepsin K and at human cathepsin F were 1.8 nM and 3330 nM, respectively.

As to `N#CC1(NC(=O)[C@@H]2CCCC[C@H]2c2nc([C@@H]3CCCCO3)sc2-c2ccc(N3CCS(=O)(=O)CC3)cc2)CC1` [Example 149, (1R,2R)-N-(1-cyanocyclopropyl)-2-(5-(4-(1,1-dioxidothiomorpho-lino)phenyl)-2-((S)-tetrahydro-2H-pyran-2-yl)thiazol-4-yl)cyclohexane-carboxamide], the IC50 amounted to 3.6 nM on human cathepsin K and 7560 nM at human cathepsin F.

Consider `N#CC1(NC(=O)[C@@H]2CCCC[C@H]2c2nc(Oc3ccccc3)sc2-c2ccc(N3CCS(=O)(=O)CC3)cc2)CC1` [Example 16, (1R,2R)-N-(1-Cyanocyclopropyl)-2-(5-(4-(1,1-dioxidothiomorpholino)phenyl)-2-phenoxythiazol-4-yl)cyclohexanecarboxamide], for which the values for the IC50 at human cathepsin K and on human cathepsin F were 2.5 nM and 931 nM, respectively.

As to `N#CC1(NC(=O)[C@@H]2C[C@@H](F)CC[C@H]2c2nc(-c3ccc(F)cc3)sc2-c2ccc(N3CCS(=N)(=O)CC3)cc2)CC1` [Example 176, (1R,2R,5S)-N-(1-cyanocyclopropyl)-5-fluoro-2-(2-(4-fluorophenyl)-5-(4-(1-imino-1-oxidothiomorpholino)phenyl)thiazol-4-yl)cyclohexane-carboxamide], the IC50 at human cathepsin K amounted to 3.2 nM; at human cathepsin F, 3330 nM.

Turning to `C[C@@H](C#N)NC(=O)[C@@H]1C[C@@H](F)CC[C@H]1c1nc(C2CC(F)C2)sc1-c1ccc(N2CCS(=O)(=O)CC2)cc1` (single isomer, unassigned) [Example 236, (1R,2R,5S)-N-((S)-1-cyanoethyl)-2-(5-(4-(1,1-dioxidothiomorpho-lino)phenyl)-2-((1R,3R or 1S,3S)-(3-fluorocyclobutyl)thiazol-4-yl)-5-fluorocyclohexane-carboxamide], the IC50 at human cathepsin K was 3.7 nM; on human cathepsin F, 4500 nM.

On to `CC1(C)CN(c2nc([C@@H]3CCCC[C@H]3C(=O)NC3(C#N)CC3)c(-c3ccc(N4CCS(=O)(=O)CC4)cc3)s2)CC(C)(C)O1` [Example 101, (1R,2R)-N-(1-cyanocyclopropyl)-2-(5-(4-(1,1-dioxidothiomorpho-lino)phenyl)-2-(2,2,6,6-tetramethylmorpho-lino)thiazol-4-yl)cyclohexane-carboxamide], for which the IC50 was 48.8 nM at human cathepsin K and ≥ 10000 nM on human cathepsin F.

On to `N#CC1(NC(=O)[C@@H]2CCCC[C@H]2c2nc(Nc3ccc(F)cc3F)sc2-c2ccc(N3CCS(=O)(=O)CC3)cc2)CC1` [Example 181, (1R,2R)-N-(1-cyanocyclopropyl)-2-(2-((2,4-difluorophenyl)amino)-5-(4-(1,1-dioxidothiomorpho-lino)phenyl)thiazol-4-yl)cyclohexane-carboxamide], for which the IC50 is 31.9 nM on human cathepsin K and 3490 nM on human cathepsin F.

On to `N#CC1(NC(=O)[C@@H]2CCC(F)(F)C[C@H]2c2nc(-c3ccc(F)cc3)sc2-c2ccc(N3CCS(=O)(=O)CC3)cc2)CC1` [Example 78, (1R,2R)-N-(1-cyanocyclopropyl)-2-(5-(4-(1,1-dioxidothiomorpho-lino)phenyl)-2-(4-fluorophenyl)thiazol-4-yl)-4,4-difluorocyclohexane-carboxamide], for which the values for the IC50 at human cathepsin K and at human cathepsin F were 3.8 nM and 3330 nM, respectively.

For `CC(Oc1ncccc1-c1nc([C@@H]2CCCC[C@H]2C(=O)NC2(C#N)CC2)c(-c2ccc(N3CCS(=O)(=O)CC3)cc2)s1)C(F)(F)F` (mixture of isomers) [Example 134, (1R,2R)-N-(1-cyanocyclopropyl)-2-(5-(4-(1,1-dioxidothiomorpho-lino)phenyl)-2-(2-(((S and R)-1,1,1-trifluoropropan-2-yl)oxy)pyridin-3-yl)thiazol-4-yl)cyclohexane-carboxamide], the IC50 turned out to be 2.8 nM on human cathepsin K and 3330 nM on human cathepsin F.

Take `N#CC1(NC(=O)[C@@H]2CCCC[C@H]2c2nc(-c3cccc(F)c3F)sc2-c2ccc(N3CCS(=O)(=O)CC3)cc2)CC1` [Example 62, (1R,2R)-N-(1-cyanocyclopropyl)-2-(2-(2,3-difluorophenyl)-5-(4-(1,1-dioxidothiomorpho-lino)phenyl)thiazol-4-yl)cyclohexane-carboxamide]: the figures for the IC50 on human cathepsin K and on human cathepsin F were 2.1 nM and 1000 nM, respectively.

In the case of `CC1(C)CN(c2nc([C@@H]3CCCC[C@H]3C(=O)NC3(C#N)CC3)c(-c3ccc(N4CCS(=O)(=O)CC4)cc3)s2)CCO1` [Example 142, (1R,2R)-N-(1-cyanocyclopropyl)-2-(2-(2,2-dimethylmorpholino)-5-(4-(1,1-dioxidothiomorpho-lino)phenyl)thiazol-4-yl)cyclohexane-carboxamide], the figures for the IC50 at human cathepsin K and on human cathepsin F were 5.8 nM and 3400 nM, respectively.

With `CC(Oc1ccc(-c2nc([C@@H]3CCCC[C@H]3C(=O)NC3(C#N)CC3)c(-c3ccc(N4CCS(=O)(=O)CC4)cc3)s2)cn1)C(F)(F)F` (mixture of isomers) [Example 137, (1R,2R)-N-(1-cyanocyclopropyl)-2-(5-(4-(1,1-dioxidothiomorpho-lino)phenyl)-2-(6-(((S and R)-1,1,1-trifluoropropan-2-yl)oxy)pyridin-3-yl)thiazol-4-yl)cyclohexane-carboxamide], the IC50 on human cathepsin K stood at 1.2 nM; on human cathepsin F it was 3330 nM.

As to `N#CC1(NC(=O)[C@@H]2CCCC[C@H]2c2nc(-c3cccc(F)c3)sc2-c2ccc(N3CCS(=O)(=O)CC3)cc2)CC1` [Example 64, (1R,2R)-N-(1-cyanocyclopropyl)-2-(5-(4-(1,1-dioxidothiomorpho-lino)phenyl)-2-(3-fluorophenyl)thiazol-4-yl)cyclohexane-carboxamide], the IC50 at human cathepsin K was determined as 1.4 nM; on human cathepsin F, 1330 nM.
